Laboratory results reported in ChEMBL document CHEMBL2073908, “The effect of rifampin treatment on intestinal expression of human MRP transporters” (Am J Pathol, 2000).

Columns and labels:
[1] = target: T1, ATP-binding cassette sub-family C member 2 (Homo sapiens, UniProt Q92887); assay: TP_TRANSPORTER: Northern blot in vivo, apical membrane of enterocyte; type: functional, organism-based
[2] = target: T1, ATP-binding cassette sub-family C member 2; assay: TP_TRANSPORTER: Immunohistochemistry in vivo, apical membrane of enterocytes; type: functional, organism-based, Enterocyte apical membrane

T1 sequence (Q92887 whole entry): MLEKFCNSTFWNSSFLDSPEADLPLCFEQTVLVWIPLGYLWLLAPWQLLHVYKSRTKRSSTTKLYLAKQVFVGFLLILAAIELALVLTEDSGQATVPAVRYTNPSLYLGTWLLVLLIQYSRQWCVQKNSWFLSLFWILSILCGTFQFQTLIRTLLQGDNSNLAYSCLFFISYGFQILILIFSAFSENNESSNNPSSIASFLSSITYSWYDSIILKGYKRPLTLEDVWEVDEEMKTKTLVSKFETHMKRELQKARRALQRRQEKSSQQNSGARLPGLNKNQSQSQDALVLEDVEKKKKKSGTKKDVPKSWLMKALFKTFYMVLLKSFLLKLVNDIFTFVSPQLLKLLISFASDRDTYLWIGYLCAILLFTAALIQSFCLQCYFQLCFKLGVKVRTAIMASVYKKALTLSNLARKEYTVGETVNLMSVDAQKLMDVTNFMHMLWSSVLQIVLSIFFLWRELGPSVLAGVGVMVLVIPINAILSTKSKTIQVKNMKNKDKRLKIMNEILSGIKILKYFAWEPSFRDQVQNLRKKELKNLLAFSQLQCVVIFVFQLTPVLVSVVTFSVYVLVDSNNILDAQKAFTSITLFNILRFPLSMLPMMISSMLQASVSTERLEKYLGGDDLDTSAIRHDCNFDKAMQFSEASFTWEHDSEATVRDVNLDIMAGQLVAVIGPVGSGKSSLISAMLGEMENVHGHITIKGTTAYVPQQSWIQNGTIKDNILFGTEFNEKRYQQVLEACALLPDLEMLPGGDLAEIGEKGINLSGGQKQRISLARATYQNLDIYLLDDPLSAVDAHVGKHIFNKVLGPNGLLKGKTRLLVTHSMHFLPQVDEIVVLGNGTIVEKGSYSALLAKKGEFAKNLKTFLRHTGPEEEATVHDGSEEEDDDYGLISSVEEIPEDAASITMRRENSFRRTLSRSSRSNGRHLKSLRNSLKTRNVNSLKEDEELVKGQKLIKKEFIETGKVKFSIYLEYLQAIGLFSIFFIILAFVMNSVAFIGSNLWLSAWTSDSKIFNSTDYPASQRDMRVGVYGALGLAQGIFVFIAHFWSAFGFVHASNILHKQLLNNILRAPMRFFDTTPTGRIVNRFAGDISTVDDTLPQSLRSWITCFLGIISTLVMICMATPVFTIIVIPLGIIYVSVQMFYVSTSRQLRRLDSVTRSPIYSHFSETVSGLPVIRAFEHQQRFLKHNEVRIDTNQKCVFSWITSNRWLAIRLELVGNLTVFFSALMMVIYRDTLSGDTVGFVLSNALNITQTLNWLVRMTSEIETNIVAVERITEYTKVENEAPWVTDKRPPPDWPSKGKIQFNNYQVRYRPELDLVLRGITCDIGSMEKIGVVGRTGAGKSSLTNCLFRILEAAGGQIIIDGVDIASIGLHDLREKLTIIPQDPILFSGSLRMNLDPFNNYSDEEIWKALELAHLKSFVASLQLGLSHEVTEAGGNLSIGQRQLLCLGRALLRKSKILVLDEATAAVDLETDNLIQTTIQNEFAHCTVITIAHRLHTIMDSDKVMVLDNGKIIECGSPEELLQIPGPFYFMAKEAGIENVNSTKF

SMILES: CO[C@H]1/C=C/O[C@@]2(C)Oc3c(C)c(O)c4c(O)c(c(/C=N/N5CCN(C)CC5)c(O)c4c3C2=O)NC(=O)/C(C)=C\C=C\[C@H](C)[C@H](O)[C@@H](C)[C@@H](O)[C@@H](C)[C@H](OC(C)=O)[C@@H]1C [RIFAMPIN]
- Activity [1]: inducer [+]
- Activity [2]: inducer [+]
